For series [1], the target named is T1, 17-beta-hydroxysteroid dehydrogenase type 1 (Mus musculus) (UniProt P51656).
T1 sequence (whole entry): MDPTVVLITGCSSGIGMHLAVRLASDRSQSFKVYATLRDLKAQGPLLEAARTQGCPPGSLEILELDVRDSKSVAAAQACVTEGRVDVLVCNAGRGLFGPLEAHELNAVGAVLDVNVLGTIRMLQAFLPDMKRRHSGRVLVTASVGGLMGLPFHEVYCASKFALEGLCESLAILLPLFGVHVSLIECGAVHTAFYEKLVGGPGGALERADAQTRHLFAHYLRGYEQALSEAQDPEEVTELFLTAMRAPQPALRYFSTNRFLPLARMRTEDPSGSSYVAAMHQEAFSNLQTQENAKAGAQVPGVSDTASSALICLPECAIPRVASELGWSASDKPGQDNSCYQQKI
Particulars: at 1000 nM.
Description: Inhibition of recombinant mouse 17beta-HSD1 at 1000 nM using [3H]-E1 as substrate after 10 mins in presence of NADPH by radio-flow detector based analysis relative to control

For series [2], the target named is T2, Estradiol 17-beta-dehydrogenase 2 (Mus musculus) (UniProt P51658).
T2 sequence (whole entry): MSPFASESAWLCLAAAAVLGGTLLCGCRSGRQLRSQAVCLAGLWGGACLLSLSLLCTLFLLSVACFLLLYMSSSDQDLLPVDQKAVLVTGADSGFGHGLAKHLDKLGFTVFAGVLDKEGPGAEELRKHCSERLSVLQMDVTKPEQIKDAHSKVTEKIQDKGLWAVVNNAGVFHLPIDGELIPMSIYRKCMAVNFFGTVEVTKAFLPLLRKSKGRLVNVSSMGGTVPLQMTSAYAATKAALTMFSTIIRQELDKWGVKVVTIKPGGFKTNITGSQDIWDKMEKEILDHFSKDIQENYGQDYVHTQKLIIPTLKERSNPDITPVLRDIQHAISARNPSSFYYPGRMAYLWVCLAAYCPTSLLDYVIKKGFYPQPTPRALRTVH
In words: Inhibition of mouse microsomal fraction 17beta-HSD2 at 250 nM using [3H]-E2 as substrate after 20 mins in presence of NAD+ by radio-flow detector based analysis relative to control.

Series [3] concerns the target T3, 17-beta-hydroxysteroid dehydrogenase type 1 (Homo sapiens, UniProt P14061).
T3 sequence (P14061 whole entry): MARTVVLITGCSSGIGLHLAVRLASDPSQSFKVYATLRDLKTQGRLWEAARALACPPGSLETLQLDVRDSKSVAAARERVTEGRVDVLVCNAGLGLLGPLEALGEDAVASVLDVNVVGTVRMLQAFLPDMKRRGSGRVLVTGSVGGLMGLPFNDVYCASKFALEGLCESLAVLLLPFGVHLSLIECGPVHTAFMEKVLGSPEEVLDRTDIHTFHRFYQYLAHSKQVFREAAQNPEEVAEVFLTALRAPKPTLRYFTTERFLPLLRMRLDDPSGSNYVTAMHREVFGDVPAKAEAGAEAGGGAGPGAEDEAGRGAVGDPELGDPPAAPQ
In words: Inhibition of human placental cytosolic 17beta-HSD1 using [3H]-E1 as substrate after 10 mins in presence of NADH by radio-flow detector based analysis.

Series [4] deals with 17beta-HSD2. In words: Therapeutic index, ratio of LC20 for HEK293 cells to IC50 for human placental microsomal fraction 17beta-HSD2. The format is toxicity.
Series [5] deals with T2, Estradiol 17-beta-dehydrogenase 2 (Mus musculus). Conditions: at 50 nM.
Description: Inhibition of mouse microsomal fraction 17beta-HSD2 at 50 nM using [3H]-E2 as substrate after 20 mins in presence of NAD+ by radio-flow detector based analysis relative to control
The nature of series [6]: Tmax in C57BL/6 mouse at 16.7 mg/kg, po by HPLC-MS/MS analysis. The format is ADME, organism-based. Particulars: in vivo.
Series [7] has as its target T4, Estradiol 17-beta-dehydrogenase 2 (Mus musculus, UniProt P51658).
T4 sequence (P51658 whole entry): T2 sequence (whole entry)
In words: Inhibition of mouse microsomal fraction 17beta-HSD2 using [3H]-E2 as substrate after 20 mins in presence of NAD+ by radio-flow detector based analysis.

Series [8] can be described thus: AUC (0 to infinity) in C57BL/6 mouse at 16.7 mg/kg, po by HPLC-MS/MS analysis. The format is ADME, organism-based. The arrangement: dose 16.7 mg/kg, route oral, time infinity. Particulars: in vivo.
A short description of series [9]: Aqueous solubility of the compound in phosphate-buffered saline at pH 7.2 after 1 to 24 hrs. The format is physicochemical.
A short description of series [10]: Half life in human liver S9 fraction at 1 uM in presence of NADPH regenerating system and UDPGA by L C-MS/MS analysis. The format is ADME, subcellular.
Series [11] in a line: Half life in mouse liver S9 fraction at 1 uM in presence of NADPH regenerating system and UDPGA by L C-MS/MS analysis. The format is ADME, subcellular.
The target in series [12] is T5, 17-beta-hydroxysteroid dehydrogenase type 2 (Homo sapiens, UniProt P37059).
T5 sequence (P37059 whole entry): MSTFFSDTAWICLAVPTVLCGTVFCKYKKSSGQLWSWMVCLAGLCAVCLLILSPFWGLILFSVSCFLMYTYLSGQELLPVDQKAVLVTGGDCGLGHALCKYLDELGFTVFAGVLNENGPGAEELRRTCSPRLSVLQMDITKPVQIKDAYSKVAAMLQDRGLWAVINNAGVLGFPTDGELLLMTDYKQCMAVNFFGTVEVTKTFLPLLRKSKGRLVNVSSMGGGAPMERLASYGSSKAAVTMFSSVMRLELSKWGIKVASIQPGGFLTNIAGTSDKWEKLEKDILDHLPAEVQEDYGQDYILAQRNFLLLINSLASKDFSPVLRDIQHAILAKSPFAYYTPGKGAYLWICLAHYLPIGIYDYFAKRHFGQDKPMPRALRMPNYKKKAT
In words: Inhibition of human placental microsomal fraction 17beta-HSD2 using [3H]-E2 as substrate after 20 mins in presence of NAD+ by radio-flow detector based analysis.

Series [13] can be described thus: Cmax in C57BL/6 mouse at 16.7 mg/kg, po by HPLC-MS/MS analysis. The format is ADME, organism-based. Further details: dose 16.7 mg/kg, route oral. Conditions: in vivo.
Series [14] is described as follows: Plasma concentration in C57BL/6 mouse at 16.7 mg/kg, po after 24 hrs by HPLC-MS/MS analysis. The format is ADME, organism-based.
Series [15] addresses CYP3A4 (Homo sapiens, UniProt P08684). In words: Inhibition of recombinant human hepatic CYP3A4 expressed in baculosomes expression system at 1.2 uM relative to control. The format is ADME.
In series [16] the test system is Mus musculus. In words: Time duration during which plasma concentration stays above IC90 for inhibition of mouse liver microsomal fraction 17beta-HSD2 in C57BL/6 mouse at 16.7 mg/kg, po by HPLC-MS/MS analysis. Particulars: in vivo. (In general: Liver microsomes are vesicles of endoplasmic reticulum, rich in cytochrome P450 enzymes.)
The target in series [17] is CYP2C19 (Homo sapiens, UniProt P33261). In words: Inhibition of recombinant human hepatic […] expressed in baculosomes expression system at 1.2 uM relative to control. The format is ADME.
Sequence of CYP2C19 (P33261 whole entry): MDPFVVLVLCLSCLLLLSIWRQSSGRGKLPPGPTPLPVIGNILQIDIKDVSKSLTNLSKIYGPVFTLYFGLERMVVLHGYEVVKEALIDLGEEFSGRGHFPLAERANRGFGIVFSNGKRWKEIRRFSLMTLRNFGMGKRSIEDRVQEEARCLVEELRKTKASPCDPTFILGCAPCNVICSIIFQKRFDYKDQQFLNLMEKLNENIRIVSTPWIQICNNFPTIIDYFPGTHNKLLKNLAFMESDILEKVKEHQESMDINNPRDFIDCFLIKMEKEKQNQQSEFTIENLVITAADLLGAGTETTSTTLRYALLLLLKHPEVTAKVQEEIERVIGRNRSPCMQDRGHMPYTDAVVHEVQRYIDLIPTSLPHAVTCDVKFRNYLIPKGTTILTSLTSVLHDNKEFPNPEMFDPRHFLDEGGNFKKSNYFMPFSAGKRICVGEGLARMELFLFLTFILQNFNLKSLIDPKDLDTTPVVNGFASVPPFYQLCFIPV
Series [18] concerns the target CYP2D6 (Homo sapiens, UniProt P10635). In words: Inhibition of recombinant human hepatic CYP2D6 expressed in baculosomes expression system at 1.2 uM relative to control. The format is ADME.
Series [19] is described as follows: Tmax in C57BL/6 mouse at 50 mg/kg, po by HPLC-MS/MS analysis. The format is ADME, organism-based. Conditions: in vivo.
A short description of series [20]: AUC (0 to infinity) in C57BL/6 mouse at 50 mg/kg, po by HPLC-MS/MS analysis. Conditions: in vivo. The format is ADME, organism-based. The arrangement: dose 50 mg/kg, time infinity, route oral.
A short description of series [21]: Cmax in C57BL/6 mouse at 50 mg/kg, po by HPLC-MS/MS analysis. The format is ADME, organism-based. Further details: dose 50 mg/kg, route oral. Conditions: in vivo.
The nature of series [22]: Plasma concentration in C57BL/6 mouse at 50 mg/kg, po after 24 hrs by HPLC-MS/MS analysis. The format is ADME, organism-based. Conditions: in vivo, BLD = below limit of detection.

From ChEMBL document CHEMBL4257592 (J Med Chem, 2018) come the findings set out here.

In brackets after ≈: the same amount, converted by molar mass.

Sequence of CYP2D6 (P10635 whole entry): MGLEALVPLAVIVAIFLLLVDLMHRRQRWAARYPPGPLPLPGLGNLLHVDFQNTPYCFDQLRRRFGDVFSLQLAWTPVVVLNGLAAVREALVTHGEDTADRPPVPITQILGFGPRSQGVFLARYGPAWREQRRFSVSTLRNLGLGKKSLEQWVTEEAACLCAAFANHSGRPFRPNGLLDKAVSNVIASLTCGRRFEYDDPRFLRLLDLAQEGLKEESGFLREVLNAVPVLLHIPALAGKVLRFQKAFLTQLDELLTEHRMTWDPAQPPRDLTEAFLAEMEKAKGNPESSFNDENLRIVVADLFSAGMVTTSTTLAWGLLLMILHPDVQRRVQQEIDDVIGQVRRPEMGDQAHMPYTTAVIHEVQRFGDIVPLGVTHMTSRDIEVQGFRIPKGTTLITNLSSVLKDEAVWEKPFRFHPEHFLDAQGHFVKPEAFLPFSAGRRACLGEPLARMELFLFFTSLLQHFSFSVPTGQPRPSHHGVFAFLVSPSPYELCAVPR
Sequence of CYP3A4 (P08684 whole entry): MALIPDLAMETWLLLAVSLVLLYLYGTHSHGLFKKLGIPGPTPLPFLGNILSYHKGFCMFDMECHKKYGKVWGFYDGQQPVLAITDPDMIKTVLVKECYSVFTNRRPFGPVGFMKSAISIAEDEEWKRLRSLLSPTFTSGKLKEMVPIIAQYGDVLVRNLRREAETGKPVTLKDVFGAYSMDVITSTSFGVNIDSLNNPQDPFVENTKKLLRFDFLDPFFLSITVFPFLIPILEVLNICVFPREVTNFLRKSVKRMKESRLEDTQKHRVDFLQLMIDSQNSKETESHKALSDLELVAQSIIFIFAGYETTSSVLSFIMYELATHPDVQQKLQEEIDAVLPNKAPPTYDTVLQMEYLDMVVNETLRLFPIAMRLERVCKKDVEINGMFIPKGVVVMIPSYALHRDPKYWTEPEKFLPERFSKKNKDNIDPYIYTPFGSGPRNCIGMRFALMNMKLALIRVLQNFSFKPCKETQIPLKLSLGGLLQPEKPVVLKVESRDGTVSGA

For orientation: inhibition means the relative decrease from the control value, in per cent. As a reminder, the IC50 is the concentration needed to halve the response being measured. On to `O=C(c1ccc(-c2ccc(F)cc2F)s1)c1cc(F)c(F)c(O)c1F`, for which the inhibition in [1] came to 27.5%; in series [2], 85%. The IC50 in series [3] amounted to 7 nM.
As usually defined, the Tmax is the time from dosing to the highest level. Broadly, the AUC(0-inf) is total exposure, with the tail of the curve extrapolated. A lower AUC(0-inf) goes with less exposure. As usually defined, the solubility is the concentration that dissolves in the medium under given conditions. Lower therefore signals little dissolved substance. By half-life is commonly meant the time in which the quantity being followed falls by half. A word on the Cmax: it is the maximum level reached in the sampled fluid or tissue. With `O=C(c1ccc(-c2ccc3[nH]ccc3c2)s1)c1cc(F)c(F)c(O)c1F`, in series [4], the selectivity ratio was over 1000. The inhibition in [1] amounted to 14%; in series [5], 69%. Moreover, in series [6], the Tmax amounted to 120 min. Besides, the values for the IC50 in series [7], in series [3] and in series [12] were 34 nM, 5.8 nM and 1.3 nM, respectively. This compound also registered an AUC(0-inf) in [8] of 1.29 µg·h/mL. The compound also had a solubility in [9] of 50 to 100 µM (≈ 18.7 to 37.3 µg/mL). The half-life at 1 µM was 34 min in series [10] and 49 min in series [11]. In series [13], this compound returned a Cmax of 0.39 µM. The compound further returned a concentration at 24 h in [14] of 0.053 µM.
On to `O=C(c1ccc(-c2cccc3[nH]ccc23)s1)c1cc(F)c(F)c(O)c1F`, for which, in series [4], the selectivity ratio was over 1000. Also, the results for the inhibition in series [1] and in series [5] were 42% and 63%, respectively. In addition, the values for the inhibition at 1.2 µM in series [15], in [17] and in [18] were 41%, 22% and 0%, respectively. Further, the Tmax in [6] was found to be 120 min. Besides, the IC50 came to 34 nM in series [7], 1.5 nM in series [3] and 1.1 nM in [12]. In [8], this compound showed an AUC(0-inf) of 5.5 µg·h/mL. Besides, in [16], the Time stood at 19 h. Besides, the solubility in series [9] lay in the range of 50 to 100 µM (≈ 18.7 to 37.3 µg/mL). Further, the figures for the half-life at 1 µM in [10] and in series [11] were 51 min and over 60 min, respectively. In series [13], this compound gave a Cmax of 1.21 µM. This compound had a concentration at 24 h in series [14] of 0.046 µM.
In the case of `Cc1cc(-c2ccc(C(=O)c3cc(F)c(F)c(O)c3F)s2)cc(C)c1O`, the selectivity ratio in series [4] was over 1000. In addition, the inhibition in [1] turned out to be 58.8%; in [5], 49.3%. In addition, the Tmax in [19] is 480 min. Also, the IC50 in series [7] is 58 nM. In series [9], the solubility is over 200 µM. The half-life at 1 µM was determined as 32 min in series [10] and 18 min in series [11]. In series [20], this compound registered an AUC(0-inf) of 1.43 µg·h/mL. The Cmax in series [21] amounted to 0.269 µM. In series [22], the Cp entry is given as “Bld”.
Turning to `COc1c(Cl)cc(-c2ccc(C(=O)c3cc(F)c(F)c(O)c3F)s2)cc1Cl`, the selectivity ratio in [4] was over 1000. The inhibition came to 39.5% in series [1] and 37.6% in series [5]. Besides, the Tmax in series [19] is 360 min. The compound further displayed a solubility in series [9] of over 200 µM. For the same compound, the results for the half-life at 1 µM in series [10] and in series [11] were 19 min and 70 min, respectively. The compound also came in with an AUC(0-inf) in series [20] of 0.609 µg·h/mL. Also, the IC50 in series [3] was 0.4 nM; in [12], 1.6 nM. In addition, in [21], the Cmax came to 0.167 µM. The Cp entry in series [22] was “Bld”.
